According to US12065445B2, “CDK2 inhibitors and methods of using the same” (Cedilla Therapeutics, Inc., priority 2021, dated 2024):

These compounds were tested on Kuramochi cells (assay: BrdU Cell Proliferation Assay). Settings: read-out: BrdU - KURAMOCHI.1: IC50.
Format: cell-based
Procedure, shortened: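 Kuramochi cells were seeded at 2,000 cells/well, adhered overnight, then treated with a 10-point, 3-fold compound dilution series for 4 days. Proliferation was measured by a 1-hour BrdU pulse, anti-BrdU peroxidase colorimetric ELISA and 450 nm absorbance. Values were background-subtracted and normalized to DMSO wells.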

Structure (SMILES)	IC50
CNC(=O)[C@@H](NC(=O)[C@H]1CN(C(=O)c2sc(C(C)C)nc2C)CC12CN(C(=O)[C@H]1CC1(C)C)C2)[C@@H](C)OCC1CCCCC1 [I-227B]	> 10 µM
CNC(=O)[C@@H](NC(=O)[C@@H]1CN(C(=O)c2cnn(Cc3ccccc3)c2)CC12CN(C(=O)[C@H]1CC1(C)C)C2)C(C)(C)SCc1ccccc1 [I-171A, (S)-6-(1-benzyl-1H-pyrazole-4-carbonyl)-N—((R)-3-(benzylthio)-3-methyl-1-(methylamino)-1-oxobutan-2-yl)-2-((S)-2,2-dimethylcyclopropane-1-carbonyl)-2,6-diazaspiro[3.4]octane-8-carboxamide]	> 10 µM
CNC(=O)[C@@H](NC(=O)[C@H]1CN(C(=O)c2cn[nH]c2)CC12CN(C(=O)[C@H]1CC1(C)C)C2)[C@@H](C)OCC1CCCCC1 [I-66B]	> 10 µM
CNC(=O)[C@H](CS(=O)(=O)Cc1ccccc1)NC(=O)[C@@H]1CN(C(=O)c2cnn(Cc3ccccc3)c2)CC12CN(C(=O)[C@H]1CC1(C)C)C2 [I-226]	> 10 µM
CC1(C)C[C@@H]1C(=O)N1CC2(CN(C(=O)c3cnn(Cc4ccccc4)c3)C[C@H]2C(=O)NCC2CCCCO2)C1 (some centres unmarked) [I-221]	> 10 µM
COC(=O)C1(NC(=O)[C@@H]2CN(C(=O)c3cnn(Cc4ccccc4)c3)CC23CN(C(=O)[C@H]2CC2(C)C)C3)COC1 [I-142B]	> 10 µM
CNC(=O)[C@@H](NC(=O)[C@H]1CN(C(=O)c2cnc(C(F)(F)F)s2)CC12CN(C(=O)[C@H]1CC1(C)C)C2)[C@@H](C)OCC1CCCCC1 [I-161B]	> 10 µM
CNC(=O)[C@@H](NC(=O)[C@H]1CN(C(=O)c2sc(COC)nc2C)CC12CN(C(=O)[C@H]1CC1(C)C)C2)[C@@H](C)OCC1CCCCC1 [I-162B]	> 10 µM
C[C@@H](OCC1CCCCC1)[C@H](NC(=O)[C@@H]1CN(C(=O)c2cnn(Cc3ccccc3)c2)CC12CN(C(=O)[C@H]1CC1(C)C)C2)C(=O)N1CCC[C@@H](N)C1 [I-218]	5 to 10 µM
C[C@@H](OCc1ccccc1)[C@H](NC(=O)C1CN(C(=O)c2cnn(Cc3ccccc3)c2)CC12CN(C(=O)[C@H]1CC1(C)C)C2)C(=O)N1CC2(CCC2)C1 (some centres unmarked) [I-106]	0.5 to 5 µM
CC1(C)C[C@@H]1C(=O)N1CC2(CN(C(=O)c3cnn(Cc4ccccc4)c3)C[C@H]2C(=O)NC2CCNC(=O)C2)C1 (some centres unmarked) [I-223]	> 10 µM
CC1(C)C[C@@H]1C(=O)N1CC2(CN(C(=O)c3cnn(Cc4ccccc4)c3)C[C@H]2C(=O)N[C@@H]2CCCN(C(=O)C3CCCCC3)C2)C1 [I-215]	> 10 µM
CNC(=O)[C@@H](NC(=O)[C@@H]1CN(C(=O)C2CCNC2)CC12CN(C(=O)[C@H]1CC1(C)C)C2)[C@@H](C)OCc1ccccc1 (stereo partly drawn) [I-70A, (8S)—N-((2S,3R)-3-(benzyloxy)-1-(methylamino)-1-oxobutan-2-yl)-2-((S)-2,2-dimethylcyclopropane-1-carbonyl)-6-(pyrrolidine-3-carbonyl)-2,6-diazaspiro[3.4]octane-8-carboxamide]	> 10 µM
COCCNC(=O)[C@H]1CN(C(=O)c2cnn(Cc3ccccc3)c2)CC12CN(C(=O)[C@H]1CC1(C)C)C2 [I-122B]	> 10 µM
CCCCC1CC1C(=O)N1CC2(CN(C(=O)c3cnn(Cc4ccccc4)c3)C[C@H]2C(=O)N[C@H](C(=O)NC)[C@@H](C)OCc2ccccc2)C1 (some centres unmarked) [I-94A]	> 10 µM
CNC(=O)[C@@H](NC(=O)[C@@H]1CN(C(=O)c2cnn(Cc3ccccc3)c2)CC12CN(C(=O)[C@H]1CC1(C)C)C2)[C@@H](C)OCC1CCC(C(F)(F)F)CC1 (some centres unmarked) [I-141A]	0.5 to 5 µM
C[C@@H](OCc1ccccc1)[C@H](NC(=O)C1CN(C(=O)c2cnn(Cc3ccccc3)c2)CC12CN(C(=O)[C@H]1CC1(C)C)C2)C(=O)N1CCC(F)(F)CC1 (some centres unmarked) [I-85]	0.5 to 5 µM
CC1(C)C[C@@H]1C(=O)N1CC2(CN(C(=O)c3cnn(Cc4ccccc4)c3)C[C@H]2C(=O)N2CCC(OCc3ccccc3)CC2)C1 [I-214]	> 10 µM
CC1(C)C[C@@H]1C(=O)N1CC2(CN(C(=O)c3cnn(Cc4ccccc4)c3)C[C@H]2C(=O)N2CC[C@H](OCC3CCCCC3)C2)C1 [I-256]	5 to 10 µM
CC1(C)C[C@@H]1C(=O)N1CC2(CN(C(=O)c3cnn(Cc4ccccc4)c3)C[C@H]2C(=O)N2CCC[C@H](C(=O)NC3CCCCC3)C2)C1 [I-180]	> 10 µM
CNC(=O)[C@@H](NC(=O)[C@@H]1CN(C(=O)Nc2cnn(Cc3ccccc3)c2)CC12CN(C(=O)[C@H]1CC1(C)C)C2)[C@@H](C)OCc1ccccc1 [I-48A, (S)—N6-(1-benzyl-1H-pyrazol-4-yl)-N8-((2S,3R)-3-(benzyloxy)-1-(methylamino)-1-oxobutan-2-yl)-2-((S)-2,2-dimethylcyclopropane-1-carbonyl)-2,6-diazaspiro[3.4]octane-6,8-dicarboxamide]	> 10 µM
CNC(=O)[C@@H](NC(=O)[C@@H]1CN(Cc2cn[nH]c2)CC12CN(C(=O)[C@H]1CC1(C)C)C2)[C@@H](C)OCc1ccccc1 [I-50A]	> 10 µM
CNC(=O)[C@@H](NC(=O)[C@H]1CN(C(=O)c2cncs2)CC12CN(C(=O)C(C)(C)C)C2)[C@@H](C)OCC1CCCCC1 [I-186B]	> 10 µM
C[C@@H](OCc1ccccc1)[C@H](NC(=O)C1CN(C(=O)c2cnn(Cc3ccccc3)c2)CC12CN(C(=O)[C@H]1CC1(C)C)C2)C(=O)NCCC(=O)O (some centres unmarked) [I-29]	> 10 µM
CNC(=O)[C@@H](NC(=O)[C@@H]1CN(C(=O)c2cnn(Cc3ccccc3)c2)CC12CN(C(=O)C1(c3ccc(C(C)(C)C)cc3)CC1)C2)[C@@H](C)OCc1ccccc1 [I-80A]	> 10 µM

Structure (SMILES)	IC50
CNC(=O)[C@@H](NC(=O)[C@@H]1CN(C(=O)c2cnn(Cc3ccccc3)c2)CC12CN(C(=O)CC(F)(F)F)C2)[C@@H](C)OCc1ccccc1 [I-87A]	> 10 µM
COCC1(NC(=O)[C@H]2CN(C(=O)c3cnn(Cc4ccccc4)c3)CC23CN(C(=O)[C@H]2CC2(C)C)C3)CC1 [I-250]	> 10 µM
CNC(=O)[C@@H](NC(=O)[C@@H]1CN(C(=O)c2cnn(Cc3ccccc3)c2)CC12CN(C(=O)[C@H]1CC1(C)C)C2)[C@@H](C)OCC1(C(F)(F)F)CC1 [I-205A]	> 10 µM
CNC(=O)[C@@H](NC(=O)[C@@H]1CN(C(=O)c2cnn(Cc3ccccc3)c2)CC12CN(C(=O)C1(C(F)(F)F)CC1)C2)[C@@H](C)OCc1ccccc1 [I-108A]	> 10 µM
CNC(=O)[C@@H](NC(=O)[C@@H]1CN(C(=O)c2c[nH]c3ccccc23)CC12CN(C(=O)[C@H]1CC1(C)C)C2)[C@@H](C)OCc1ccccc1 [I-72A]	> 10 µM
CC1(C)C[C@@H]1C(=O)N1CC2(CN(C(=O)c3cnn(Cc4ccccc4)c3)C[C@H]2C(=O)N[C@H]2CCCN(CC3CCCCC3)C2)C1 [I-183]	> 10 µM
CC1(C)C[C@@H]1C(=O)N1CC2(CN(C(=O)c3cnn(Cc4ccccc4)c3)C[C@@H]2C(=O)NC2CCCN(C(=O)c3ccccc3)C2)C1 (some centres unmarked) [I-59B]	> 10 µM
CC1(C)C[C@@H]1C(=O)N1CC2(CN(C(=O)c3cnn(Cc4ccccc4)c3)C[C@H]2C(=O)Nc2cccc(Cc3ccccc3)c2)C1 [I-75A]	0.5 to 5 µM
CCCCC1CC1C(=O)N1CC2(CN(C(=O)c3cnn(Cc4ccccc4)c3)C[C@@H]2C(=O)N[C@H](C(=O)NC)[C@@H](C)OCc2ccccc2)C1 (some centres unmarked) [I-94B]	> 10 µM
CNC(=O)[C@@H](NC(=O)[C@@H]1CN(C(=O)c2cnn(Cc3ccccc3)c2)CC12CN(C(=O)C(C)(C)C#N)C2)[C@@H](C)OCc1ccccc1 [I-76A]	> 10 µM
CNC(=O)[C@@H](NC(=O)[C@H]1CN(C(=O)c2cnn(Cc3ccccc3)c2)CC12CN(C(=O)C(C)(C)C#N)C2)[C@@H](C)OCc1ccccc1 [I-76B]	> 10 µM
CNC(=O)[C@@H](NC(=O)[C@@H]1CN(C(=O)c2cnn(Cc3ccccc3)c2)CC12CN(C(=O)[C@H]1CC1(C)C)C2)[C@@H](C)OCC1CCCC1 [I-110A]	0.5 to 5 µM
CNC(=O)[C@@H](NC(=O)[C@@H]1CN(C(=O)c2cn[nH]c2)CC12CN(C(=O)CC1CC1)C2)[C@@H](C)OCc1ccccc1 [I-41A, (S)—N-((2S,3R)-3-(benzyloxy)-1-(methylamino)-1-oxobutan-2-yl)-2-(2-cyclopropylacetyl)-6-(1H-pyrazole-4-carbonyl)-2,6-diazaspiro[3.4]octane-8-carboxamide]	> 10 µM
CNC(=O)[C@H](CCCC1CCCCC1)NC(=O)[C@@H]1CN(C(=O)c2cnn(Cc3ccccc3)c2)CC12CN(C(=O)[C@H]1CC1(C)C)C2 [I-155A]	> 10 µM
CNC(=O)[C@@H](NC(=O)[C@@H]1CN(Cc2cnn(Cc3ccccc3)c2)CC12CN(C(=O)[C@H]1CC1(C)C)C2)[C@@H](C)OCc1ccccc1 [I-16A]	> 10 µM
CNC(=O)[C@@H](NC(=O)[C@H]1CN(C(=O)c2cnn(CC3CCN(C)CC3)c2)CC12CN(C(=O)[C@H]1CC1(C)C)C2)[C@@H](C)OCc1ccccc1 [I-23B]	> 10 µM
CC1(C)C[C@@H]1C(=O)N1CC2(CN(C(=O)c3cnn(Cc4ccccc4)c3)C[C@H]2C(=O)N[C@H]2CCN(C3CC3)C2=O)C1 [I-243]	> 10 µM
C[C@@H]1C[C@H](C)CN(C(=O)[C@@H](NC(=O)C2CN(C(=O)c3cn[nH]c3)CC23CN(C(=O)[C@H]2CC2(C)C)C3)[C@@H](C)OCc2ccccc2)C1 (some centres unmarked) [I-124]	> 10 µM
CC1(C)C[C@@H]1C(=O)N1CC2(CN(C(=O)c3cnn(Cc4ccccc4)c3)CC2C(=O)NC2CNCCOC2)C1 (some centres unmarked) [I-245]	> 10 µM
CNC(=O)[C@@H](NC(=O)[C@@H]1CN(C(=O)c2cnn(Cc3ccccc3)c2)CC12CN(C(=O)[C@H]1CC1(C)C)C2)[C@@H](C)OCc1ccncc1 [I-244]	> 10 µM
Cc1noc([C@H](C)NC(=O)[C@@H]2CN(C(=O)c3cnn(Cc4ccccc4)c3)CC23CN(C(=O)[C@H]2CC2(C)C)C3)n1 [I-158A]	> 10 µM
C[C@@H](OCc1ccccc1)[C@H](NC(=O)C1CN(C(=O)c2cnn(Cc3ccccc3)c2)CC12CN(C(=O)[C@H]1CC1(C)C)C2)C(=O)NCCN (some centres unmarked) [I-31]	> 10 µM
CC1(C)C[C@@H]1C(=O)N1CC2(CN(C(=O)c3cnn(Cc4ccccc4)c3)C[C@@H]2C(=O)NC2CCN(C(=O)c3ccccc3)CC2)C1 [I-61B]	> 10 µM
CNC(=O)[C@@H](NC(=O)[C@@H]1CN(C(=O)c2cnn(Cc3ccccc3)c2)CC12CN(C(=O)CC(C)C)C2)[C@@H](C)OCc1ccccc1 [I-69A]	> 10 µM
CNC(=O)[C@@H](NC(=O)[C@@H]1CN(C(=O)C2CCOCC2)CC12CN(C(=O)[C@H]1CC1(C)C)C2)[C@@H](C)OCc1ccccc1 [I-38A]	> 10 µM
